Results from publication PMC10174618, “Monoterpenoid aryl hydrocarbon receptor allosteric antagonists protect against ultraviolet skin damage in female mice” (Nature Communications, 2023).

What was measured:
Assay in all cases: biochemical
Set-up in all cases: KINOMEscan scanMAX active site-directed competition binding assay, percent of control, 468 kinases
Conditions in all cases: competition binding, percent of control
AURKC = AURKC (Homo sapiens, UniProt Q9UQB9)
Method in brief: (§1)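 KINOMEscan active site-directed competition binding assay against 468 human kinases with 100 μM S-carvone. Binding expressed as % of control, with 35% of control as the inhibition threshold.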

PCTK1 = biological target: T1, PCTK1 (Homo sapiens, UniProt Q00536)
T1 construct: gene CDK16
Method in brief: as §1

SLK = SLK (Homo sapiens, UniProt Q9H2G2)
Method in brief: as §1

PYK2 = biological target: T2, PYK2 (Homo sapiens, UniProt Q14289)
T2 construct: gene PTK2B
Method in brief: as §1

EGFR(L861Q) = EGFR(L861Q) (Homo sapiens, UniProt P00533, L861Q)
Method in brief: as §1

RIPK4 = RIPK4 (Homo sapiens, UniProt P57078)
RIPK4, sequence (P57078 whole entry): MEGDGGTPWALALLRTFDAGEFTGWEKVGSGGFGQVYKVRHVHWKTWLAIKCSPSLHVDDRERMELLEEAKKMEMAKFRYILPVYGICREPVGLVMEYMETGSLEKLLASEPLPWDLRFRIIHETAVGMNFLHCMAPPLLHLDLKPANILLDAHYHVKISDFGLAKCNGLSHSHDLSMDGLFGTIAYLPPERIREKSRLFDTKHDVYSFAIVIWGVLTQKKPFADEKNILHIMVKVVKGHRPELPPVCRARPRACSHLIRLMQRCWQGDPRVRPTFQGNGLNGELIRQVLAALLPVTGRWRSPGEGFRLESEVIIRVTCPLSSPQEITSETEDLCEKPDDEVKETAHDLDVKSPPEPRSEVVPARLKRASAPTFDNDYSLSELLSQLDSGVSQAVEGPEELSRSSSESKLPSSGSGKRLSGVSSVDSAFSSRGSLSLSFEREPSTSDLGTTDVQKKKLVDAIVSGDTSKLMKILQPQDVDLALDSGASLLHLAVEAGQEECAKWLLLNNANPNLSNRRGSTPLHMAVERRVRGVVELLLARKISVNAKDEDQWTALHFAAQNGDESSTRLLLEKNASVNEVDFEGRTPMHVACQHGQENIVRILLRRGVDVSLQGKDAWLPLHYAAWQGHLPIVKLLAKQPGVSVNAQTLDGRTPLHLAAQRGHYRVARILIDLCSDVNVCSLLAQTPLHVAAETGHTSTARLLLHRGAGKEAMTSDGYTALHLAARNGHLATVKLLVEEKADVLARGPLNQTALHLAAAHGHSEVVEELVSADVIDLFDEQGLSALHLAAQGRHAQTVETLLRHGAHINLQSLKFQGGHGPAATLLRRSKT
Method in brief: as §1

HIPK2 = HIPK2 (Homo sapiens, UniProt Q9H2X6)
Method in brief: as §1

TAOK2 = TAOK2 (Homo sapiens, UniProt Q9UL54)
Method in brief: as §1

PAK4 = PAK4 (Homo sapiens, UniProt O96013)
Method in brief: as §1

DAPK1 = DAPK1 (Homo sapiens, UniProt P53355)
Method in brief: as §1

CSNK1A1 = CSNK1A1 (Homo sapiens, UniProt P48729)
Method in brief: as §1

PIP5K2B = biological target: T3, PIP5K2B (Homo sapiens, UniProt P78356)
T3 construct: gene PIP4K2B
T3 sequence (P78356 whole entry): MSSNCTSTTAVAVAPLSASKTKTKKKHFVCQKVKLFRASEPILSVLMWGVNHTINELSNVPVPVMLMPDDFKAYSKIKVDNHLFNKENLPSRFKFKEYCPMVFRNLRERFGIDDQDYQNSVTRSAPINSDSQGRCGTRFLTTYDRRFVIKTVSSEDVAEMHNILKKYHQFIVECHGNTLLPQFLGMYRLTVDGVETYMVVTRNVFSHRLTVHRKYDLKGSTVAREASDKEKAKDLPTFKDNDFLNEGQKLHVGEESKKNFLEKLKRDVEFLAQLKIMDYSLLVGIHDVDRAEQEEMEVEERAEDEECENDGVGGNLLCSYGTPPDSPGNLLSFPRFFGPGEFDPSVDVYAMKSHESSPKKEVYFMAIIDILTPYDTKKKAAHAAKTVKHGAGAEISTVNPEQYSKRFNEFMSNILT
Method in brief: as §1

CSF1R = CSF1R (Homo sapiens, UniProt P07333)
Method in brief: as §1

TAOK1 = TAOK1 (Homo sapiens, UniProt Q7L7X3)
TAOK1, sequence (Q7L7X3 whole entry): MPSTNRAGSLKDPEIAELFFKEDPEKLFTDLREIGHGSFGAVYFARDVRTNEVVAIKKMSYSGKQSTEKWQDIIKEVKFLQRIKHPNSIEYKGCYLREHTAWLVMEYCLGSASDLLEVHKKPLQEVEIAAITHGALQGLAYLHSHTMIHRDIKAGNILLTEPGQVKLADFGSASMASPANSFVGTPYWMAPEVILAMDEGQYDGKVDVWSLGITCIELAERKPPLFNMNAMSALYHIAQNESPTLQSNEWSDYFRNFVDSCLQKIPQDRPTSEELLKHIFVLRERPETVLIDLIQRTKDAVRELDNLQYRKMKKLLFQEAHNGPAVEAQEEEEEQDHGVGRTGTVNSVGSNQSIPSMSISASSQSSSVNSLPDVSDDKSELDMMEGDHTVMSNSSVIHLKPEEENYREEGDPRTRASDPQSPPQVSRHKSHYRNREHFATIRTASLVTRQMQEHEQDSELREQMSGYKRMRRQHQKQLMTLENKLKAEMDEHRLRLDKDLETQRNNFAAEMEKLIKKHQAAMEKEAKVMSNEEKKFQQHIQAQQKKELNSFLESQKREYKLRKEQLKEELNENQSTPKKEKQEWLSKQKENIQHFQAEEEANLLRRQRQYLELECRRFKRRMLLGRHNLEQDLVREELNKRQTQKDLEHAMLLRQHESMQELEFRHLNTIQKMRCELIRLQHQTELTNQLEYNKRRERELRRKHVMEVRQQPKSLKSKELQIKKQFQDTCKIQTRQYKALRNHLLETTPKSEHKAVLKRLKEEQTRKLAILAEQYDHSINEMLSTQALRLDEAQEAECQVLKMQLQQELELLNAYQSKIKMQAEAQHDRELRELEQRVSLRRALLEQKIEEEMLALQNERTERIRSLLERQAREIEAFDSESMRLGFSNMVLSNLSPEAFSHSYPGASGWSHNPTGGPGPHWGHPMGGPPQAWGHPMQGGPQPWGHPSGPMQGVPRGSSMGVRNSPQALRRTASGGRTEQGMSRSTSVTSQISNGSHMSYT
Method in brief: as §1

SGK3 = SGK3 (Homo sapiens, UniProt Q96BR1)
Method in brief: as §1

MST1R = MST1R (Homo sapiens, UniProt Q04912)
Method in brief: as §1

MAP3K2 = MAP3K2 (Homo sapiens, UniProt Q9Y2U5)
Method in brief: as §1

EGFR(T790M) = EGFR(T790M) (Homo sapiens, UniProt P00533, T790M)
Method in brief: as §1

FLT3-autoinhibited = FLT3-autoinhibited (Homo sapiens, UniProt P36888)
Method in brief: as §1

CDKL5 = CDKL5 (Homo sapiens, UniProt O76039)
CDKL5, sequence (O76039 whole entry): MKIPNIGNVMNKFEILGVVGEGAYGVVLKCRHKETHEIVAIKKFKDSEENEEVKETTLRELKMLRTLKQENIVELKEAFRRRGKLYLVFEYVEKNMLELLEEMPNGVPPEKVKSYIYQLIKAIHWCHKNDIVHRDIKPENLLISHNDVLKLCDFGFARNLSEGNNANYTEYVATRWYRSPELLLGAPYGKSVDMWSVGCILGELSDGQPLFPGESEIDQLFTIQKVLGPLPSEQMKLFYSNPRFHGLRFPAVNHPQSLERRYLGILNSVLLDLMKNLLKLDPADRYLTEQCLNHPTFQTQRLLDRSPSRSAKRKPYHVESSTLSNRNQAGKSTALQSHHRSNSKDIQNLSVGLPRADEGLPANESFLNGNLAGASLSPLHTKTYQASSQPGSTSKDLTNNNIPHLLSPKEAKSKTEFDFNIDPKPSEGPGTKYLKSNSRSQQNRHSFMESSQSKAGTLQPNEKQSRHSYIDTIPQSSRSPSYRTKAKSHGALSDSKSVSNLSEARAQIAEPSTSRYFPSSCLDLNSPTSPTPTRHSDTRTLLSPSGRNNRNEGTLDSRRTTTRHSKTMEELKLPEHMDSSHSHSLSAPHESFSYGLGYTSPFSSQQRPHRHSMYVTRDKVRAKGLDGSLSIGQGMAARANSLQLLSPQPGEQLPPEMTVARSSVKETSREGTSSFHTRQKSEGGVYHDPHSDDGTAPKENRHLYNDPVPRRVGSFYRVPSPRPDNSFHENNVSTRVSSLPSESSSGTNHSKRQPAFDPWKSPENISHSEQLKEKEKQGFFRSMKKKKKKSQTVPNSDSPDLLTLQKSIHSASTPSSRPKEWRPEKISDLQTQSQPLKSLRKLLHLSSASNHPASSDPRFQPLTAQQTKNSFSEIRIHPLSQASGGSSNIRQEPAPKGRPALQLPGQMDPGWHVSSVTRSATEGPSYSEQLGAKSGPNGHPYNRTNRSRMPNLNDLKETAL
Method in brief: as §1

TIE1 = TIE1 (Homo sapiens, UniProt P35590)
TIE1, sequence (P35590 whole entry): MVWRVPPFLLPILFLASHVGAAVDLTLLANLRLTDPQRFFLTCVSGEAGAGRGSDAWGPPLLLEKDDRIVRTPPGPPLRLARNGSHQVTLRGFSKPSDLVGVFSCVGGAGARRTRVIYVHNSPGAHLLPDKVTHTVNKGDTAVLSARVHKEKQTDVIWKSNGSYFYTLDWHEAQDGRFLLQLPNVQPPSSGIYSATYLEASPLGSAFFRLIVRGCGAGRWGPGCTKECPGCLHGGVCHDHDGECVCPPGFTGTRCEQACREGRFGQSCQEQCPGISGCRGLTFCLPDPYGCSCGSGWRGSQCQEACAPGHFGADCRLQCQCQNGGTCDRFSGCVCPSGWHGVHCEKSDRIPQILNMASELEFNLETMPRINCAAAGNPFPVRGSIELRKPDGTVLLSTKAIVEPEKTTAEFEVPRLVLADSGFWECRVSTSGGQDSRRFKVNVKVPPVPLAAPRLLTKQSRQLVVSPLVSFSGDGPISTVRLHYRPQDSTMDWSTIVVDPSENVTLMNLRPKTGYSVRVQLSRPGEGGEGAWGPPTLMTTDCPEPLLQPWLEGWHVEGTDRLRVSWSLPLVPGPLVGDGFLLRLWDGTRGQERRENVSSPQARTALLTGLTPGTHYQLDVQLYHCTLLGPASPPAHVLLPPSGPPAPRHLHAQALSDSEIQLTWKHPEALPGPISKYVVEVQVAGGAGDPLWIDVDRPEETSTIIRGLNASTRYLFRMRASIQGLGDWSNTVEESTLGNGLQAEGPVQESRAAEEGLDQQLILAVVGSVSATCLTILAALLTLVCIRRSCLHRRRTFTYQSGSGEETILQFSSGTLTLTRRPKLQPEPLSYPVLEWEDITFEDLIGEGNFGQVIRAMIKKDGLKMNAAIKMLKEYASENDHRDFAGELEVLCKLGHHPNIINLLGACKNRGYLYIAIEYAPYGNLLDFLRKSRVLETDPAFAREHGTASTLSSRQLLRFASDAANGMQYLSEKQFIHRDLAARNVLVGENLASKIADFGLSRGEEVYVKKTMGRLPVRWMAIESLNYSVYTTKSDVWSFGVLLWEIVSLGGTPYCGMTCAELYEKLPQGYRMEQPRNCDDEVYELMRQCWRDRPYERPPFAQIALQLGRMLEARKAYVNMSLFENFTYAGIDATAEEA
Method in brief: as §1

SBK1 = SBK1 (Homo sapiens, UniProt Q52WX2)
SBK1, sequence (Q52WX2 whole entry): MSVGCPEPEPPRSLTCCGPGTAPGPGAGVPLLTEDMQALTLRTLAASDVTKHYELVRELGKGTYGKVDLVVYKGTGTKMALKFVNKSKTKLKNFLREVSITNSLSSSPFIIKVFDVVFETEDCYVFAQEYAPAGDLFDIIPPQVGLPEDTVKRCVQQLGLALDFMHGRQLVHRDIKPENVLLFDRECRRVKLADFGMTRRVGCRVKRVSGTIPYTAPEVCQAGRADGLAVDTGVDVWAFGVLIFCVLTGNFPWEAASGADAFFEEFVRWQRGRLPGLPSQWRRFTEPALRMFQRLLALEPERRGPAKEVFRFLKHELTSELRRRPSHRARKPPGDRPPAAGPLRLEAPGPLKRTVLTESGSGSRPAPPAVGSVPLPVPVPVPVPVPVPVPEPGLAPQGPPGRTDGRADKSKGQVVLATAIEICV
Method in brief: as §1

C=C(C)[C@H]1CC=C(C)C(=O)C1 [S-carvone]
remaining binding at 100 µM (AURKC): 100% | remaining binding at 100 µM (PCTK1): 100% | remaining binding at 100 µM (SLK): 78% | remaining binding at 100 µM (PYK2): 80% | remaining binding at 100 µM (EGFR(L861Q)): 65% | remaining binding at 100 µM (RIPK4): 64% | remaining binding at 100 µM (HIPK2): 76% | remaining binding at 100 µM (TAOK2): 78% | remaining binding at 100 µM (PAK4): 74% | remaining binding at 100 µM (DAPK1): 65% | remaining binding at 100 µM (CSNK1A1): 68% | remaining binding at 100 µM (PIP5K2B): 100% | remaining binding at 100 µM (CSF1R): 86% | remaining binding at 100 µM (TAOK1): 82% | remaining binding at 100 µM (SGK3): 81% | remaining binding at 100 µM (MST1R): 65% | remaining binding at 100 µM (MAP3K2): 58% | remaining binding at 100 µM (EGFR(T790M)): 64% | remaining binding at 100 µM (FLT3-autoinhibited): 67% | remaining binding at 100 µM (CDKL5): 96% | remaining binding at 100 µM (TIE1): 89% | remaining binding at 100 µM (SBK1): 100%
